From ChEMBL document CHEMBL5465560, “Selectivity Literature for EUbOPEN Chemogenomic Library” (2024) come the findings set out here.

Assay [1] addresses T1, Phosphorylase b kinase gamma catalytic chain, liver/testis isoform (Homo sapiens) (UniProt P15735).
T1 sequence (whole entry): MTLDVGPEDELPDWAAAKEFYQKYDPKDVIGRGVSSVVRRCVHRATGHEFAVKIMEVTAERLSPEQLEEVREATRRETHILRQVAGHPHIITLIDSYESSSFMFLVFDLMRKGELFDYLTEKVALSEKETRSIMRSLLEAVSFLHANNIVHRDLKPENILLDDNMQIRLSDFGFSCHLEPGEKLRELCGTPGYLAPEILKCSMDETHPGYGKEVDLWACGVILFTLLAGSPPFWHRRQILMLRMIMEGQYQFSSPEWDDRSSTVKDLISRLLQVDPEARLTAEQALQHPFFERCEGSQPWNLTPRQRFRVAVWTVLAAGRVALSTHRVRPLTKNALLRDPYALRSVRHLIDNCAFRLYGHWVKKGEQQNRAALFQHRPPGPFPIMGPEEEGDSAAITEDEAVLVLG
Briefly: Selectivity interaction (Ambit KINOMEscan and KiNATiv profiling in Jurkat cells) EUB0000090b PHKG2. The assay is classed as cell-based. The following applies: at 1 µM.

Assay [2] addresses T2, Serine/threonine-protein kinase RIO3 (Homo sapiens) (UniProt O14730).
T2 sequence (whole entry): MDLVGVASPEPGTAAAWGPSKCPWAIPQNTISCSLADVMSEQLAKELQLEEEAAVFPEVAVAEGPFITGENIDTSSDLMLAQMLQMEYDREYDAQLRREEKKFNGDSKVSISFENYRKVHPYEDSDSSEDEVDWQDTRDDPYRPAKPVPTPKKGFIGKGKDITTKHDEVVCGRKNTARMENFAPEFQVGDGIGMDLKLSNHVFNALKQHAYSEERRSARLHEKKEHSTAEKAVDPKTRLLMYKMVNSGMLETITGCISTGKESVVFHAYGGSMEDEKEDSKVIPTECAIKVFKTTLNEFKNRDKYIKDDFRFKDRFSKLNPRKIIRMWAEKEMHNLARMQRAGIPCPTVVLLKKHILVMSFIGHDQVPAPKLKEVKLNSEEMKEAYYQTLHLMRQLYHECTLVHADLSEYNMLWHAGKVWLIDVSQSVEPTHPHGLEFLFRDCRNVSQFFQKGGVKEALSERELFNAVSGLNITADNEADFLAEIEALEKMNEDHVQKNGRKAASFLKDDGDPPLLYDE
Briefly: Selectivity interaction (KinomeScan (DiscoverX)) EUB0000092b RIOK3. The settings on record: at 10 µM.

Assay [3] addresses Fibroblast growth factor receptor 1 (Homo sapiens, UniProt P11362). Briefly: Selectivity interaction (KinomeScan (DiscoverX)) EUB0001049a FGFR1. The following applies: at 1 µM.
The target in assay [4] is Serine/threonine-protein kinase PAK 6 (Homo sapiens) (UniProt Q9NQU5). The experiment in a line: Selectivity interaction (KinomeScan (DiscoverX)) EUB0001049a PAK6. The following applies: at 1 µM.
The target of assay [5] is T3, Serine/threonine-protein kinase PLK4 (Homo sapiens) (UniProt O00444).
T3 sequence (whole entry): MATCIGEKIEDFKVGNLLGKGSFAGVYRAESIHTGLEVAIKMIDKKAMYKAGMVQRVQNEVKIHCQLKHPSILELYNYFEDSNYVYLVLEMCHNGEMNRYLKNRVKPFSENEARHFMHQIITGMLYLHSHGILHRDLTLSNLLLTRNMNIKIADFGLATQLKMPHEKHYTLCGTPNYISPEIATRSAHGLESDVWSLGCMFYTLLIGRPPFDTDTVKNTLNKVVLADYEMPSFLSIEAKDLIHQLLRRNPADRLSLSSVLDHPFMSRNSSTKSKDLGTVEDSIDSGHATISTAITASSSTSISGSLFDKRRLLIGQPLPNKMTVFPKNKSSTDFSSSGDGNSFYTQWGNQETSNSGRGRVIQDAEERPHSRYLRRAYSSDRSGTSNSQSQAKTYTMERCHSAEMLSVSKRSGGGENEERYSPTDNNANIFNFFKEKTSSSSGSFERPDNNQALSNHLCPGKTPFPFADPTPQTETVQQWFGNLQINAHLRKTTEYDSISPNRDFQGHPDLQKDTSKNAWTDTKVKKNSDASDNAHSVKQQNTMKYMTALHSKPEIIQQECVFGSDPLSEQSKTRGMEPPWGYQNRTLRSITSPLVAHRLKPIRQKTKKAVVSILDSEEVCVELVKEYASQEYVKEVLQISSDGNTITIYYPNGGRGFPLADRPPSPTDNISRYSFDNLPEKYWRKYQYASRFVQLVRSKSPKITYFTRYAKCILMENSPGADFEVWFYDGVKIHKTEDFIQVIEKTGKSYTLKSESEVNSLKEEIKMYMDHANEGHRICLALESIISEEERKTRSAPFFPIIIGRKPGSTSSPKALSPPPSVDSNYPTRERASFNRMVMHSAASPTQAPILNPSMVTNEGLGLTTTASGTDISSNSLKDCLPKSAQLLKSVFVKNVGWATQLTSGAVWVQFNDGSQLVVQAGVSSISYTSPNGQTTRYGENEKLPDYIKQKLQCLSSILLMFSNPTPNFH
The experiment in a line: Selectivity interaction (LanthaScreen Eu Kinase Binding Assay) EUB0001632a PLK4. The following applies: at 10 µM.

For assay [6], the target named is Dual specificity testis-specific protein kinase 1 (Homo sapiens) (UniProt Q15569). The experiment in a line: Selectivity interaction (KinomeScan (DiscoverX)) EUB0001619a TESK1. The following applies: at 1 µM.

Each structure is given as a SMILES string.

Serine/threonine-protein kinase PAK 6 (Homo sapiens), sequence (Q9NQU5 whole entry, looked up): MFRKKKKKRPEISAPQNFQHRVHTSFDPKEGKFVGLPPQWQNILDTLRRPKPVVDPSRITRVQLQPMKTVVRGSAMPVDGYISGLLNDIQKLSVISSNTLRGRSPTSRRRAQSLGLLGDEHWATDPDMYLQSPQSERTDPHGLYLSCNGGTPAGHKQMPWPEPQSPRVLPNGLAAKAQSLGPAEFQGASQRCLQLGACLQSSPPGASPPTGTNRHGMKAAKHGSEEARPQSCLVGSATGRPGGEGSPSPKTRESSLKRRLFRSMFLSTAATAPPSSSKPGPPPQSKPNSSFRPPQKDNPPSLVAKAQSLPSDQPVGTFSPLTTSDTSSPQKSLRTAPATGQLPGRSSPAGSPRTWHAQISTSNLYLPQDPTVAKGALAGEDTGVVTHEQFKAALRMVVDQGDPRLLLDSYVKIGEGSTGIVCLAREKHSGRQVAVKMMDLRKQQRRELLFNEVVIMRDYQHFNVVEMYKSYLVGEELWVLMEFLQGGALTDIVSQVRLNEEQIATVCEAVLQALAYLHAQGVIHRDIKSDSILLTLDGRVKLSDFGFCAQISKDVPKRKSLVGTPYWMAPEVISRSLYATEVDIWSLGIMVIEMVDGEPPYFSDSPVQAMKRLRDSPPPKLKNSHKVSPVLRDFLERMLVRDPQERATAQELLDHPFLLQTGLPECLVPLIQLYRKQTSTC
Fibroblast growth factor receptor 1, sequence (P11362 22-822 limits assumed): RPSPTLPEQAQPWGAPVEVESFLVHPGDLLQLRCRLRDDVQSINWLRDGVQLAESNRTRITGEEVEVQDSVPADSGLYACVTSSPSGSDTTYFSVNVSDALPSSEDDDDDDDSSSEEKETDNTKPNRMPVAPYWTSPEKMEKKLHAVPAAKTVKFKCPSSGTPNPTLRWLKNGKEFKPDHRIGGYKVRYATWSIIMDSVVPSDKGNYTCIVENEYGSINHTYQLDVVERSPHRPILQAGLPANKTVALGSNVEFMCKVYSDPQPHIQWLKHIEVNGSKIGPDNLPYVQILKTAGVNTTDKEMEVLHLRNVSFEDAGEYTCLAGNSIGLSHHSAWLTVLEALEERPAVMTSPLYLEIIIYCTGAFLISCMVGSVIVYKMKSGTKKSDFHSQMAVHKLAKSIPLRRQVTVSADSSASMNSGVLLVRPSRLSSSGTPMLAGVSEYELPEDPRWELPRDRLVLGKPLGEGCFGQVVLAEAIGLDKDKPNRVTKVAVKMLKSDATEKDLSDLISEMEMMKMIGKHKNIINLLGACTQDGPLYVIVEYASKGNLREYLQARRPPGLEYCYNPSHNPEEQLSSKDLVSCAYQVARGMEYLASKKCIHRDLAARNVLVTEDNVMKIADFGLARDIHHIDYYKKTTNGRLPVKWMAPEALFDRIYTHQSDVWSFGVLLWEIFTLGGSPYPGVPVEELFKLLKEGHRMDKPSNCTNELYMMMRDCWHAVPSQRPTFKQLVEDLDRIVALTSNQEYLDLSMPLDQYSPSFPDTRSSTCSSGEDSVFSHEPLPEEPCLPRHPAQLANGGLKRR
Dual specificity testis-specific protein kinase 1 (Homo sapiens), sequence (Q15569 whole entry, looked up): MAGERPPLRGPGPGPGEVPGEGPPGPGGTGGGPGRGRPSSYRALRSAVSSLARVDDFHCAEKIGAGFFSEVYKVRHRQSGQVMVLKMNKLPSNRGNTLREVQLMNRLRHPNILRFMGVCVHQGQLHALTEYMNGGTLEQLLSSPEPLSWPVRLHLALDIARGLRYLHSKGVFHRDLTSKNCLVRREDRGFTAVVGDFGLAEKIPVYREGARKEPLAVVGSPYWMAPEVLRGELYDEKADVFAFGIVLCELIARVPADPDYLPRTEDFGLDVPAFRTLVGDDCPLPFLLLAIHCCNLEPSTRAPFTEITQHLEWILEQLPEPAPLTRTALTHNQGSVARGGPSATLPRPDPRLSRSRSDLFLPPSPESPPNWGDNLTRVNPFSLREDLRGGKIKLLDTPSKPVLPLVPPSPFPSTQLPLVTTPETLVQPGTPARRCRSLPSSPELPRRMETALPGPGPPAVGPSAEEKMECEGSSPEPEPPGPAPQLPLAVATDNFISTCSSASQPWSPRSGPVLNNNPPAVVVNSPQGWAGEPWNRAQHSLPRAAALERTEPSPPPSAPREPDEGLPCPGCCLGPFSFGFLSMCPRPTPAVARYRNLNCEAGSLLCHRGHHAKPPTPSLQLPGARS

`CN(C)C/C=C/C(=O)Nc1ccc(C(=O)N2CCCC(Nc3ncc(Cl)c(-c4c[nH]c5ccccc45)n3)C2)cc1` (stereo unspecified) displayed a % of control in assay [1] of 94%. Regarding `CCC(=O)N1CCN(c2ccc(-n3c(=O)ccc4cnc5ccc(-c6cnc7ccccc7c6)cc5c43)cc2C(F)(F)F)CC1`, in assay [2], the % of control came to 90%.

In the case of `COc1cc(Nc2nc(C)cc(-c3cnn4nc(OC)ccc34)n2)cc(C(F)(F)F)c1`, the % of control was determined as 98% in assay [3] and 82% in assay [4]. `Cn1cc(-n2cnc3c(NCc4nc5cc(Cl)c(Cl)cc5[nH]4)nc(N4CCOCC4)nc32)cn1` had a % of inhibition in assay [5] of 0.376%. In assay [6], `N#Cc1cccc(-c2c[nH]c3ncnc(N4CCOCC4)c23)c1` displayed a % of control of 100%.
